According to publication PMC7468596, “Potent In Vitro α-Glucosidase and β-Secretase Inhibition of Amyrin-Type Triterpenoid Isolated from Datura metel Linnaeus (Angel's Trumpet) Fruits” (BioMed Research International, 2020):

Columns and labels:
[1] = molecular target: T1, α-glucosidase (rat intestinal); assay: p-nitrophenyl-α-D-glucopyranoside hydrolysis, […] nm, crude intestinal enzyme; assay type: biochemical
T1 construct: supernatant of rat intestinal acetone powder

β-secretase (BACE1) = β-secretase (BACE1) (Homo sapiens, UniProt P56817); assay: BACE1 FRET enzyme assay, pH […]; assay type: biochemical
β-secretase (BACE1), sequence (P56817 46-457): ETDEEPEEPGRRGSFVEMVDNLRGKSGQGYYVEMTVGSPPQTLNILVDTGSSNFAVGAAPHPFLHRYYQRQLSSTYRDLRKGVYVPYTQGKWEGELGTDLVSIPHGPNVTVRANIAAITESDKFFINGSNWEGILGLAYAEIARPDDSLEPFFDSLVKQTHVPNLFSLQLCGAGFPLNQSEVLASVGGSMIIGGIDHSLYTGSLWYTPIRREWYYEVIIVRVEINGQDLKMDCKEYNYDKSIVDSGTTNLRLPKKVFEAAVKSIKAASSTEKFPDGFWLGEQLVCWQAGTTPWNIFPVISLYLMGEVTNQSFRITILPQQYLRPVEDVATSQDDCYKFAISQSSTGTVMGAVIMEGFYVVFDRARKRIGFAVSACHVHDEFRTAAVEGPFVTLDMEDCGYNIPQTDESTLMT

`CC1(C)CC[C@]2(C)CC[C@]3(C)C(=CC[C@@H]4[C@@]5(C)CCC(=O)C(C)(C)[C@@H]5[C@H](O)C[C@]43C)[C@@H]2C1` [compound 1, daturaolone] showed an IC50 [1] of 830.4 ± 2.01 µM and an IC50 (β-secretase (BACE1)) of 260.7 ± 1.87 µM.
